This note sets out measurements from patent publication US10221163B2 (priority 2015, dated 2019).

Where two headings read alike, the source gives them in different places.

Series [1] relates to Pseudomonas aeruginosa efflux+ (MB9798), IMP-1. The series is classed as cell-based. The arrangement: Concentration of metallo-β-lactamase inhibitor which restores susceptibility of efflux + (MB9798) strain to imipenem: unit not given here. Conditions: C, D serine β-lactamase inhibitor closely related to relebactam; for P. aeruginosa expressing IMP-1, efflux + (MB9798) MITC95: concentration restoring susceptibility to imipenem at 2 μg/mL in the presence of a class A; for Concentration of metallo-β-lactamase inhibitor which restores susceptibility of efflux + (MB9798) strain to imipenem: imipenem at 2 μg/mL, in the presence of a class A. A digest of the protocol: (§1)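 P. aeruginosa PAO1-derived IMP-1 strains, efflux+ MB9798 and efflux− MB9799, tested by standard microbroth MIC with imipenem and/or ceftazidime fixed, usually at CLSI breakpoint, plus fixed class A/C β-lactamase inhibitor against AmpC. Inhibitor titrated; concentration restoring susceptibility recorded; MB9798/MB9799 fold difference indicates efflux.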

Another series addresses VIM-1 (Pseudomonas aeruginosa (strain ATCC 15692 / DSM 22644 / CIP 104116 / JCM 14847 / LMG 12228 / 1C / PRS 101 / PAO1), UniProt A0A0F7KYQ8). Nature of the series: biochemical. The conditions noted are these: fluorescence assay, CCF2-FA substrate, 30 pM enzyme, 2 hours at 25° C.; read-out: VIM-1 IC50. A digest of the protocol: (§2)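 Two-hour, 25° C incubation of enzyme with inhibitor and CCF2-FA (7-hydroxycoumarin–cephalosporin–fluorescein). Fluorescence read-out; IC50 via 4-parameter fit.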

Series [2] has as its system Pseudomonas aeruginosa MB9798 vs MB9799. A digest of the protocol: as §1
Series [3] relates to Escherichia coli expressing NDM-1 (CLB30005, CLB30016). The series is classed as cell-based. Conditions: with imipenem 1 μg/ml; for Escherichia coli MITC95: NDM-1 strain, 95% inhibition of growth; for Escherichia coli expressing NDM-1 (CLB30016) MITC95: 95% inhibition of bacterial growth. A digest of the protocol:
(§3)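 Growth by absorbance after 22–24 h at 35°C defined the read-out, with imipenem fixed at 1 μg/ml alongside compound. Inocula came from overnight blood-agar colonies at 35°C, resuspended in saline and diluted 1:100 in 1.1×CAMHB.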

For series [4], the system named is Serratia marcescens expressing IMP-1 (CL5741). The series is classed as cell-based. The conditions noted are these: for Serratia marcescens MITC95: IMP-1 strain CL5741, with imipenem 1 μg/ml, 95% inhibition of growth; for Serratia marcescens expressing IMP-1 (CL5741) MITC95: with imipenem 1 μg/ml, 95% inhibition of bacterial growth. A digest of the protocol: as §3

The test system of series [5] is Klebsiella pneumoniae expressing VIM-1 (IHMA599644). The series is classed as cell-based. Conditions: for Klebsiella pneumoniae MITC95: VIM-1 strain IHMA599644, with imipenem 1 μg/ml, 95% inhibition of growth; for Klebsiella pneumoniae expressing VIM-1 (IHMA599644) MITC95: with imipenem 1 μg/ml, 95% inhibition of bacterial growth. The method, boiled down:
as §3

The target in another series is IMP-1 (Serratia marcescens, UniProt P52699). The series is described as follows: biochemical. The conditions noted are these: fluorescence assay, CCF2-FA substrate, 2 pM enzyme, 2 hours at 25° C.; read-out: IMP-1 IC50. The series is classed as biochemical. A digest of the protocol:
as §2

A further series deals with NDM-1 (Klebsiella pneumoniae, UniProt C7C422). The series is described as follows: biochemical. The series is classed as biochemical. The conditions noted are these: fluorescence assay, CCF2-FA substrate, 1 pM enzyme, 2 hours at 25° C.; read-out: NDM-1 IC50. The method, boiled down: as §2
The test system of series [6] is Pseudomonas aeruginosa efflux− (MB9799), IMP-1. The series is classed as cell-based. Conditions: C, D serine β-lactamase inhibitor closely related to relebactam; for P. aeruginosa expressing IMP-1, efflux − (MB9799) MITC95: concentration restoring susceptibility to imipenem at 2 μg/mL in the presence of a class A; for Concentration of metallo-β-lactamase inhibitor which restores susceptibility of efflux − (MB9799) strain to imipenem: imipenem at 2 μg/mL, in the presence of a class A. The method, boiled down:
as §1

Where [7] appears, read: ratio MITC95 PA_9798/MITC95 PA_9799.
[8] abbreviates: fold difference between efflux+ (MB9798) and efflux− (MB9799) strains, imipenem at 2 μg/mL.

Sequence of IMP-1 (P52699 whole entry, looked up, species assumed): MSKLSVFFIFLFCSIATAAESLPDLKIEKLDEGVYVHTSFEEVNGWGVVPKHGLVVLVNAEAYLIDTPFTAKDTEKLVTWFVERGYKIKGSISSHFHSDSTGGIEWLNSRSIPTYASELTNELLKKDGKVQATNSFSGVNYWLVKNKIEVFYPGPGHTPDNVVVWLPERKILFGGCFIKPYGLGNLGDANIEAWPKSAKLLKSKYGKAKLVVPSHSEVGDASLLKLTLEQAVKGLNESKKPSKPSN
Sequence of NDM-1 (C7C422 whole entry, looked up, species assumed): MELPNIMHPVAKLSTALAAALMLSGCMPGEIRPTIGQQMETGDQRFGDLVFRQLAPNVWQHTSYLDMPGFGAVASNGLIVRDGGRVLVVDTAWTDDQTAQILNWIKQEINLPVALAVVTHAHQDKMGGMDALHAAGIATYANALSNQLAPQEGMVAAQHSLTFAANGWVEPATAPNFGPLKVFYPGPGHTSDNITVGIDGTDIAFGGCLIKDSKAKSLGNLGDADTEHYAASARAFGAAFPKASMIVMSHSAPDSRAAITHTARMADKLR

As a reminder, the IC50 is the midpoint of a concentration-inhibition curve. Turning to `NCCNS(=O)(=O)c1ccc(C2=CC(N)CCC2)c(-c2nn[nH]n2)c1S(N)(=O)=O` (stereo not drawn) [Example 338, 5′-Amino-N4-(2-aminoethyl)-2-(2H-tetrazol-5-yl)-2′,3′,4′,5′-tetrahydro-[1,1′-biphenyl]-3,4-disulfonamide], the “P. aeruginosa expressing IMP-1, efflux + (MB9798) MITC95” value in series [1] came out at 6.25 µM. In addition, the IC50 turned out to be 6.42 nM at VIM-1, 91 nM at IMP-1 and 37.6 nM on NDM-1. Further, the Efflux ratio in [2] (setting [7]) was found to be 4.00. The “Escherichia coli MITC95” value in series [3] was found to be 1.563 µM. The “Serratia marcescens MITC95” value in series [4] is 1.563 µM. The “Klebsiella pneumoniae MITC95” value in series [5] turned out to be 1.563 µM. The “P. aeruginosa expressing IMP-1, efflux − (MB9799) MITC95” value in series [6] amounted to 1.563 µM.

As to `NCC(CN)NS(=O)(=O)c1ccc(-c2ccc(N)nc2)c(-c2nn[nH]n2)c1S(N)(=O)=O` [Example 404], in series [1], the “Concentration of metallo-β-lactamase inhibitor which restores susceptibility of efflux + (MB9798) strain to imipenem” value worked out at 1.172. The IC50 at VIM-1 is 0.297 nM; on IMP-1 it was 0.354 nM; on NDM-1, 0.232 nM. In addition, the Efflux ratio in series [2] (setting [8]) was found to be 1.20. In [3], the “Escherichia coli MITC95” value stood at 0.293 µM. Moreover, the “Serratia marcescens MITC95” value in series [4] was 0.5859 µM. Besides, the “Klebsiella pneumoniae MITC95” value in series [5] was found to be 1.172 µM. Also, the “Concentration of metallo-β-lactamase inhibitor which restores susceptibility of efflux − (MB9799) strain to imipenem” value in series [6] came to 0.9766.

`Nc1ncccc1-c1ccc(S(=O)(=O)N[C@@H]2CCNC2)c(S(N)(=O)=O)c1-c1nn[nH]n1` [Example 209, (R)-4-(2-aminopyridin-3-yl)-N^1-(pyrrolidin-3-yl)-3-(2H-tetrazol-5-yl)benzene-1,2-disulfonamide]: the “P. aeruginosa expressing IMP-1, efflux + (MB9798) MITC95” value in [1] is 1.563 µM. In addition, the values for the IC50 at VIM-1, at IMP-1 and on NDM-1 were 0.177 nM, 3.1 nM and 0.148 nM, respectively. Further, the Efflux ratio in series [2] (setting [7]) came out at 1.33. The “Escherichia coli expressing NDM-1 (CLB30016) MITC95” value in [3] turned out to be 0.293 µM. Also, the “Serratia marcescens expressing IMP-1 (CL5741) MITC95” value in series [4] amounted to 0.7813 µM. The “Klebsiella pneumoniae expressing VIM-1 (IHMA599644) MITC95” value in [5] was found to be 1.563 µM. In [6], the “P. aeruginosa expressing IMP-1, efflux − (MB9799) MITC95” value stood at 1.172 µM.

For the molecule `Nc1nc2c(-c3ccc(S(=O)(=O)N[C@@H]4CCNC4)c(S(N)(=O)=O)c3-c3nnn[nH]3)cccc2s1` [Example 63, 4-(2-amino-1,3-benzothiazol-4-yl)-N1-[(3R)-pyrrolidin-3-yl]-3-(1H-tetrazol-5-yl)benzene-1,2-disulfonamide], the “P. aeruginosa expressing IMP-1, efflux + (MB9798) MITC95” value in series [1] stood at 0.7813 µM. Also, the half-maximal inhibitory concentration (IC50) was found to be 0.257 nM on VIM-1, 0.307 nM on IMP-1 and 0.0445 nM at NDM-1. The Efflux ratio in series [2] (setting [7]) turned out to be 0.50. Further, in [3], the “Escherichia coli expressing NDM-1 (CLB30016) MITC95” value came to 1.563 µM. In addition, in [4], the “Serratia marcescens expressing IMP-1 (CL5741) MITC95” value came out at 1.563 µM. In addition, in [5], the “Klebsiella pneumoniae expressing VIM-1 (IHMA599644) MITC95” value was 1.563 µM. Further, the “P. aeruginosa expressing IMP-1, efflux − (MB9799) MITC95” value in [6] stood at 1.563 µM.

In the case of `Nc1ccc(-c2ccc(S(=O)(=O)N3CCNCC3)c(S(N)(=O)=O)c2-c2nn[nH]n2)cn1` [Example 485, 3-(6-aminopyridin-3-yl)-6-(piperazin-1-ylsulfonyl)-2-(2H-tetrazol-5-yl)benzenesulfonamide], the “Concentration of metallo-β-lactamase inhibitor which restores susceptibility of efflux + (MB9798) strain to imipenem” value in [1] is 6.25. In addition, the IC50 on VIM-1 came out at 2.3 nM; at IMP-1, 3.58 nM; on NDM-1, 2.22 nM. Further, the Efflux ratio in series [2] (setting [8]) came out at 8.00. Further, the “Escherichia coli MITC95” value in series [3] came to 0.1953 µM. Also, in series [4], the “Serratia marcescens MITC95” value amounted to 0.7813 µM. The “Klebsiella pneumoniae MITC95” value in series [5] worked out at 1.563 µM. For the same molecule, the “Concentration of metallo-β-lactamase inhibitor which restores susceptibility of efflux − (MB9799) strain to imipenem” value in series [6] is on record as 0.7813.
